# Measured values taken from PubChem BioAssay AID2060498 (Molecular Pharmacology Branch, DTP, NCI, 2025).
# Where “and” joins values, the source holds several entries; their conditions need not be identical. Equal entries are not always repeated.
# System: 171881-019-R-J1-PDC tumor spheroids, viability
# Assay: Anticancer human tumor 171881-019-R-J1-PDC patient-derived invasive breast carcinoma cell line growth inhibition [GQUAD]
# Details: spheroids with HUVEC and MSC; for viability, T/C: stronger effect = lower value
# Method in brief: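 Multi-cell-type spheroids of tumor cells with HUVEC and mesenchymal stem cells, treated with drug combinations. Concentrations descend in half-log steps from near clinical Cmax, or from 10 microM where Cmax is unknown; viability read-out.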
# 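Also: spheroids exposed to compounds for 7 days.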
# 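For viability, T/C in this document: 100% = DMSO vehicle control viability.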
smiles,measurement,setting,value
COc1cc(C2c3cc4c(cc3C(OC3OC5COC(C)OC5C(O)C3O)C3COC(=O)C23)OCO4)cc(OC)c1O (centres undefined) + Cc1[nH]c2ccc(F)cc2c1-c1nc2c3cccnc3c3ncccc3c2[nH]1,IC50,"curve of first compound, second compound 0.0316 µM",0.946 µM
same,IC50,"curve of first compound, second compound 0.1 µM",0.765 µM
same,IC50,"curve of first compound, second compound 0.316 µM",0.826 µM
same,IC50,"curve of first compound, second compound 1 µM",0.862 µM
same,IC50,"curve of first compound, second compound 3.16 µM",< 0.0316 µM
same,IC50,"curve of first compound, second compound 10 µM",< 0.0316 µM
same,"viability, T/C","second compound 0.0316 µM, first compound 0.0316 µM",93.2%
same,"viability, T/C","second compound 0.0316 µM, first compound 0.1 µM",88.2%
same,"viability, T/C","second compound 0.0316 µM, first compound 0.316 µM",74.5%
same,"viability, T/C","second compound 0.0316 µM, first compound 1 µM",46.9%
same,"viability, T/C","second compound 0.0316 µM, first compound 3.16 µM",33.3%
same,"viability, T/C","second compound 0.0316 µM, first compound 10 µM",22.6%
same,"viability, T/C","second compound 0.1 µM, first compound 0.0316 µM",97.9%
same,"viability, T/C","second compound 0.1 µM, first compound 0.1 µM",98.4%
same,"viability, T/C","second compound 0.1 µM, first compound 0.316 µM",77.7%
same,"viability, T/C","second compound 0.1 µM, first compound 1 µM",40.8%
same,"viability, T/C","second compound 0.1 µM, first compound 3.16 µM",33.3%
same,"viability, T/C","second compound 0.1 µM, first compound 10 µM",24.2%
same,"viability, T/C","second compound 0.316 µM, first compound 0.0316 µM",98.7%
same,"viability, T/C","second compound 0.316 µM, first compound 0.1 µM",92.2%
same,"viability, T/C","second compound 0.316 µM, first compound 0.316 µM",72.8%
same,"viability, T/C","second compound 0.316 µM, first compound 1 µM",43.8%
same,"viability, T/C","second compound 0.316 µM, first compound 3.16 µM",33.3%
same,"viability, T/C","second compound 0.316 µM, first compound 10 µM",23.1%
same,"viability, T/C","second compound 1 µM, first compound 0.0316 µM",80.1%
same,"viability, T/C","second compound 1 µM, first compound 0.1 µM",87.6%
same,"viability, T/C","second compound 1 µM, first compound 0.316 µM",66.3%
same,"viability, T/C","second compound 1 µM, first compound 1 µM",45.2%
same,"viability, T/C","second compound 1 µM, first compound 3.16 µM",37.7%
same,"viability, T/C","second compound 1 µM, first compound 10 µM",23.4%
same,"viability, T/C","second compound 3.16 µM, first compound 0.0316 µM",28.9%
same,"viability, T/C","second compound 3.16 µM, first compound 0.1 µM",18.7%
same,"viability, T/C","second compound 3.16 µM, first compound 0.316 µM",22.6%
same,"viability, T/C","second compound 3.16 µM, first compound 1 µM",18.7%
same,"viability, T/C","second compound 3.16 µM, first compound 3.16 µM",17.7%
same,"viability, T/C","second compound 3.16 µM, first compound 10 µM",11.5%
same,"viability, T/C","second compound 10 µM, first compound 0.0316 µM",40%
same,"viability, T/C","second compound 10 µM, first compound 0.1 µM",50.6%
same,"viability, T/C","second compound 10 µM, first compound 0.316 µM",35%
same,"viability, T/C","second compound 10 µM, first compound 1 µM",33.5%
same,"viability, T/C","second compound 10 µM, first compound 3.16 µM",26.5%
same,"viability, T/C","second compound 10 µM, first compound 10 µM",15.8%
COc1cc(C2c3cc4c(cc3C(OC3OC5COC(C)OC5C(O)C3O)C3COC(=O)C23)OCO4)cc(OC)c1O (centres undefined),"viability, T/C",compound 0.0316 µM,96.6% and 95.8% and 105%
same,"viability, T/C",compound 0.1 µM,89.9% and 93.5% and 94.8%
same,"viability, T/C",compound 0.316 µM,74.2% and 73.8% and 92.6%
same,"viability, T/C",compound 1 µM,47.9% and 42.6% and 70.5%
same,"viability, T/C",compound 3.16 µM,32.8% and 30.4% and 55.1%
same,"viability, T/C",compound 10 µM,23.5% and 21.9% and 44.2%
same,IC50,curve of compound,0.956 µM and 0.784 µM and 5.26 µM
